Data reported in publication PMC8348142, “Antimicrobial Peptide Modifications against Clinically Isolated Antibiotic-Resistant Salmonella” (Molecules, 2021).
Values after ≈ are worked out from the molar mass of the structure shown. Marks after values point to notes of the source that are not given here. Square brackets hold non-standard residues; d marks the D form. Ends that are not written are not given here. Peptide text beside a SMILES is read from it.

Legend:
Type in all cases: cell-based
[1] = system: clinical Salmonella isolates; test: MBC, drop plate method, and MBC/MIC mode of action; settings: for GM of MBC: geometric mean over 12 clinical Salmonella isolates; for MBC: drop plate on MHA from MIC plate, 37 °C, 18 h, thrice
Description: (§1) All 12 isolates of Salmonella used in this study were clinical isolates and anonymous left-overs from laboratory diagnoses. They were maintained in a 20% glycerol (Sigma-Aldrich) stock at −80 °C and further cultured on Mueller-Hinton agar (MHA, Oxoid, Hampshire, UK) at 37 °C for 18 h to obtain single colonies for antimicrobial assays. This study was approved by the Ethics Committee of the Faculty of Tropical Medicine (Mahidol University, Bangkok, Thailand; MUTM-EXMPT 2017-007).
The plate derived from the MIC assay was immediately tested for the MBC using a drop plate method. A volume of 10 µL of the culture from individual wells at MIC, 2MIC, and 4MIC was dropped on MHA plates. […] The experiment was thrice performed.
In order to determine whether the peptides have bacteriostatic or bactericidal activity, a ratio of MBC to MIC (MBC/MIC) was applied. The ratio >4 was indicative of bacteriostatic peptide, and ≤4 was inferred as bactericidal peptide.

[2] = system: sheep red blood cells; test: Hemolytic activity assay; settings: for HC50 (hemolytic concentration 50): concentration inducing 50% hemolysis of sRBCs, nonlinear regression, unit (µM); for percent hemolysis: 2% sRBCs in PBS, 37 °C, 1 h, OD540, triplicate mean; for concentration required for the initiation of hemolysis: sRBCs, 60 min, 256–1 µM tested
Description: The peptide toxicity to the mammalian system was screened based on the hemolytic test by measuring the hemoglobin released from ruptured red blood cells (RBCs). In this study, sheep RBCs (sRBCs) were employed. They were thrice washed and prepared as a suspension in phosphate-buffered saline (PBS, Oxoid). A suspension of 2% sRBCs was incubated with 2-fold serial dilutions of peptide (final concentrations; 256 to 1 µM in a total volume of 200 µL) at 37 °C for 1 h. The solutions of 0.1% (final concentration) Triton X-100 (Sigma-Aldrich) and PBS containing the peptide solvent were used instead of the peptides as the controls of hemolysis at 100% and 0%, respectively. Thereafter, the post-incubated suspensions were centrifuged (1000× g, 3 min) to pelletize residual sRBCs. The supernatants were then transferred into a flat-bottom PS 96-well plate and were measured the absorbance at 540 nm (OD540) by a microplate reader. The test was conducted in triplicate and the mean OD540 was used to calculate the hemolysis (%) as; ((OD540 (peptide) − OD540 (PBS + peptide solvent))/(OD540 (0.1% Triton X-100) − OD540 (PBS + peptide solvent))) × 100. The hemolytic concentration 50 (HC50), a concentration inducing 50% hemolysis, was determined.
The GraphPad Prism version 7.00 (GraphPad Software, La Jolla, CA, USA) was applied for all statistical analyses and data visualizations. Replicate quantitative results were calculated and shown as mean ± SD, unless otherwise specified. The HC50 values were determined using nonlinear regression analysis. The paired t-test and repeated measures one-way ANOVA with Tukey’s multiple comparison test were applied to compare between 2 groups and among 3 or more groups, respectively. The comparisons were considered as a statistically significant difference when a p-value < 0.05.

[3] = system: clinical Salmonella isolates; test: MIC, broth microdilution; settings: MHB, 5 × 10^5 CFU/mL, 37 °C, 18 h, duplicate
Description: as §1
MIC was determined using the broth microdilution method described by Hancock with some modifications. Briefly, bacterial colonies grown from the MHA were prepared in MHB (Oxoid) as a 0.5 McFarland suspension (which is equal to 1 × 10^8 CFU/mL), and was further 200-fold diluted by the MHB (5 × 10^5 CFU/mL). The bacterial suspension (50 µL) was mixed with 2-fold serial dilutions of peptide (5.5 µL) achieving final concentrations of 256 to 1 µM using a round-bottom polypropylene (PP) 96-well plate (Greiner Bio-One). The plate was incubated at 37 °C for 18 h including incubating peptide free-bacteria as positive growth control, and MHB as negative growth control. After the incubation, the lowest concentration with no visible growth was defined as a MIC value. The assay was performed in a duplicate manner.

[4] = isolate 5 (Enteritidis, blood; resistant AMP, SXT, KZ)
[5] = isolate 7 (Typhimurium, blood; resistant AMP, CN, TE, NA, SXT)
[6] = isolate 11 (I 1,4:i:-, blood; resistant AMP, TE, NA, SXT, C)
[7] = isolate 18 (Stanley, urine; resistant TE, SXT, C)
[8] = isolate 26 (Typhimurium, urine; resistant TZP, TE, NA)
[9] = isolate 27 (Typhimurium, stool; resistant AMP, TE, NA, SXT, CIP)
[10] = isolate 55 (Typhimurium, blood; resistant AMP, SXT, C, TE)
[11] = isolate 61 (Enteritidis, blood; resistant AMP, TE, NA, SXT)
[12] = isolate 69 (Typhimurium, stool; resistant AMP)
[13] = isolate 76 (Enteritidis, CSF; resistant NA)
[14] = isolate 78 (Enteritidis, blood; resistant TE, CIP, NA, SXT)
[15] = isolate 107 (Typhimurium, stool; susceptible)

| Compound | GM of MBC [1] [µM] | MBC ([1]; isolate 5 (Enteritidis)) [µM] | MBC ([1]; isolate 7 (Typhimurium)) [µM] | MBC ([1]; isolate 11 (I 1,4:i:-)) [µM] | MBC ([1]; isolate 18 (Stanley)) [µM] | MBC ([1]; isolate 26 (Typhimurium)) [µM] | MBC ([1]; isolate 27 (Typhimurium)) [µM] | MBC ([1]; isolate 55 (Typhimurium)) [µM] | MBC ([1]; isolate 61 (Enteritidis)) [µM] | MBC ([1]; isolate 69 (Typhimurium)) [µM] | MBC ([1]; isolate 76 (Enteritidis)) [µM] | MBC ([1]; isolate 78 (Enteritidis)) [µM] | MBC ([1]; isolate 107 (Typhimurium)) [µM] | HC50 (hemolytic concentration 50) [2] [µM] | percent hemolysis ([2]; peptide 1 µM) [%] | percent hemolysis ([2]; peptide 2 µM) [%] | percent hemolysis ([2]; peptide 4 µM) | percent hemolysis ([2]; peptide 8 µM) | percent hemolysis ([2]; peptide 16 µM) [%] | percent hemolysis ([2]; peptide 32 µM) [%] | further results |
| --- | --- | --- | --- | --- | --- | --- | --- | --- | --- | --- | --- | --- | --- | --- | --- | --- | --- | --- | --- | --- | --- |
| FIRRIARLLRRIF [Kn2-5R] | 8 | 8 | 8 | 8 | 8 | 8 | 8 | 8 | 8 | 8 | 8 | 8 | 8 | 886.50 | 0 | 0 | 0.4% | 0.7 * % | 1.4 | 1.5 | percent hemolysis ([2]; peptide 64 µM): 1.8%; percent hemolysis ([2]; peptide 128 µM): 2.4%; percent hemolysis ([2]; peptide 256 µM): 10.6%; concentration required for the initiation of hemolysis [2]: 4 µM; MIC [3, 4]: 8 µM; MIC [3, 5]: 8 µM; MIC [3, 6]: 8 µM; MIC [3, 7]: 8 µM; MIC [3, 8]: 8 µM; MIC [3, 9]: 8 µM; MIC [3, 10]: 8 µM; MIC [3, 11]: 8 µM; MIC [3, 12]: 8 µM; MIC [3, 13]: 8 µM; MIC [3, 14]: 8 µM; MIC [3, 15]: 8 µM |
| CC[C@@H](C)[C@@H](NC(=O)[C@H](N)Cc1ccccc1)C(=O)N[C@H](CCCNC(=N)N)C(=O)N[C@H](CCCNC(=N)N)C(=O)N[C@@H](C(=O)N[C@H](C)C(=O)N[C@H](CCCNC(=N)N)C(=O)N[C@H](CC(C)C)C(=O)N[C@H](CC(C)C)C(=O)N[C@H](CCCNC(=N)N)C(=O)N[C@H](CCCNC(=N)N)C(=O)N[C@@H](C(=O)N[C@H](Cc1ccccc1)C(N)=O)[C@H](C)CC)[C@H](C)CC [dKn2-5R-NH2] (H-[dF][dI][dR][dR][dI][dA][dR][dL][dL][dR][dR][dI][dF]-NH2) | 5.99 | 8 (≈ 13.8 µg/mL) | 8 (≈ 13.8 µg/mL) | 8 (≈ 13.8 µg/mL) | 8 (≈ 13.8 µg/mL) | 8 (≈ 13.8 µg/mL) | 4 (≈ 6.92 µg/mL) | 4 (≈ 6.92 µg/mL) | 4 (≈ 6.92 µg/mL) | 4 (≈ 6.92 µg/mL) | 8 (≈ 13.8 µg/mL) | 8 (≈ 13.8 µg/mL) | 4 (≈ 6.92 µg/mL) | 199.20 | 0 | 0 | 0.4 * % | 0.5 * % | 0.9 | 2.5 | percent hemolysis ([2]; peptide 64 µM): 8.7%; percent hemolysis ([2]; peptide 128 µM): 23.6%; percent hemolysis ([2]; peptide 256 µM): 65.6%; concentration required for the initiation of hemolysis [2]: 4 µM; MIC [3, 4]: 8 µM (≈ 13.8 µg/mL); MIC [3, 5]: 8 µM (≈ 13.8 µg/mL); MIC [3, 6]: 8 µM (≈ 13.8 µg/mL); MIC [3, 7]: 8 µM (≈ 13.8 µg/mL); MIC [3, 8]: 8 µM (≈ 13.8 µg/mL); MIC [3, 9]: 4 µM (≈ 6.92 µg/mL); MIC [3, 10]: 4 µM (≈ 6.92 µg/mL); MIC [3, 11]: 4 µM (≈ 6.92 µg/mL); MIC [3, 12]: 4 µM (≈ 6.92 µg/mL); MIC [3, 13]: 8 µM (≈ 13.8 µg/mL); MIC [3, 14]: 8 µM (≈ 13.8 µg/mL); MIC [3, 15]: 4 µM (≈ 6.92 µg/mL) |
